This is an account of results in publication PMC13489962, “Small-molecule modulation of β-arrestins” (Nature, 2026).

Assay [1] deals with βARR2 recruitment to β2V2R. Briefly: PathHunter βARR2 recruitment to β2V2R in U2OS cells. It counts as cell-based. The conditions noted are these: 50 μM (recruitment), 25 μM (internalization); n = 1–2; Reviewer Fig. R2. The protocol: β-Arrestin recruitment to the agonist-activated receptor (β2V2R) was measured using the DiscoveRx PathHunter β-arrestin assay, which uses enzyme fragment complementation. […] Upon agonist-induced recruitment of βARR2 to β2V2R, the β-gal fragments complement to form a functional enzyme, generating a measurable chemiluminescent signal. The signal intensity correlates directly with the extent of βARR2 recruitment. U2OS cells co-expressing β2V2R and βARR2 were plated at a density of 25,000 cells per well in white, clear-bottom 96-well plates 24 h before treatment. On the day of the experiment, cells were treated with either a single dose (50 μM) or varying concentrations of a specific β-arrestin modulator or vehicle control in Hanks’ balanced salt solution (HBSS) (Sigma-Aldrich) with 20 mM HEPES (pH 7.4) and 0.05% BSA. Cells were incubated at 37 °C, 5% CO2, and about 100% relative humidity for about 30 min, followed by stimulation with either 10 nM Iso or a serial dilution of Iso for 60 min at 37 °C. After agonist stimulation, PathHunter reagents were added, and cells were incubated for another 60 min at ambient temperature. Luminescence signals were measured using a CLARIOstar microplate reader (BMG Labtech).

In another assay the target is T1, βARR1 coupling to pβ2V2R (Rattus norvegicus, UniProt P29066).
T1 construct: βARR1 or βARR2 construct, with their C terminus truncated (at amino acid 393 or 394, respectively); GST (pGEX4T1) (N, cleaved yes); made in house; host or cells: βARR1: E. coli BL21 (DE3) pLysS; receptor: Sf9 membranes, co-expressed with GRK2–CAAX
Briefly: [3H]-Fen high-affinity agonist binding promoted by βARR1 at pβ2V2R. Particulars: βARR1 2 μM, [3H]-Fen 6 nM, read-out: inhibition of βARR1-mediated stabilization of the high-affinity β2V2R state. It counts as biochemical. As for the experimental part: The N-terminal Flag-tagged T4 lysozyme fusion-β2V2R construct (β2AR residues 1–341 fused to V2R residues 328–372), bearing a TEV cleavage site, was co-expressed with GRK2–CAAX (membrane-anchored GRK2) or wild-type β2AR in Sf9 insect cells using the Baculovirus Expression System, as described previously[44],[62],[63],[68],[69]. At 66 h after infection, cells expressing T4L–β2V2R were stimulated with 20 μM isoproterenol for 20 min at 37 °C to induce receptor phosphorylation (pβ2V2R), while β2AR-expressing cells remained untreated. All cells were washed extensively to remove residual agonist. For membrane preparation from these cells, briefly, cells were resuspended in cold homogenization buffer (75 mM Tris-HCl, pH 7.4, 2 mM EDTA, and cOmplete protease inhibitor) and collected by centrifugation at 500g for 5 min at 4 °C. […]
To assess the effects of β-arrestin modulators on β-arrestin- or Gαs–βγ-promoted high-affinity agonist binding, [^3H]-Fen binding assays were performed using membranes from Sf9 cells expressing phosphorylated β2V2R (pβ2V2R) or β2AR[28]. […] Bound [^3H]-Fen was extracted overnight in scintillation fluid and quantified by scintillation counting. Specific binding was calculated by subtracting nonspecific from total binding.

By inhibition is commonly meant the drop in the measured response relative to a control, in per cent.

T1 sequence (P29066 1-393): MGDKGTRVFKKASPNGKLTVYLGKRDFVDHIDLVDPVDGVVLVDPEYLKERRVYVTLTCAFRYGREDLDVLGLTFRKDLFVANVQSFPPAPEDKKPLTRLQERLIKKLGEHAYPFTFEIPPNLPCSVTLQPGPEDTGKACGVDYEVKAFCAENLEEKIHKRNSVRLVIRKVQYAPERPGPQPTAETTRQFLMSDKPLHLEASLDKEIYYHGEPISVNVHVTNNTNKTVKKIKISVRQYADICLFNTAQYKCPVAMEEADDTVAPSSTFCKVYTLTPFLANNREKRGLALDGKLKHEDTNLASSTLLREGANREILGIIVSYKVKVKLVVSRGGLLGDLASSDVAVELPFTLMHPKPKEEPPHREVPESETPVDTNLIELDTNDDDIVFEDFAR

On to `C=C1C(=O)[C@]23[C@H](O)[C@H]1CC[C@H]2[C@@]12CO[C@]3(O)[C@@H](O)[C@@H]1C(C)(C)CC[C@@H]2O` [Cmpd-5, (1S,4aR,5S,6S,6aR,9S,11aS,11bS,14R)-1,5,6,14-tetrahydroxy−4,4-dimethyl-8-methylenedecahydro-1H-6,11b-(epoxymethano)-6a,9-methanocyclohepta[a]naphthalen-7(8H)-one], for which, in assay [1], the “inhibition across a full Iso dose range, βarr2 recruitment and receptor internalization” value is “robust”. Besides, on βARR1 coupling to pβ2V2R, the inhibition at 100 µM is approximately 40%.
